Measurements taken from patent US20240207414A1, “DISULFIDE-BASED PRODRUG COMPOUND” (Ludwig-Maximilians-Universitat Munchen, priority 2021, published 2024).

Tests used:
[1] = system: 4T1 Balb/c mouse breast cancer cell line, orthotopic tumor; assay: In vivo mouse tumor model assay P10
Source text: Assay Conditions and Data Representation: Immunocompetent wildtype Balb/c mice were inoculated with 4T1 Balb/c mouse breast cancer cell line orthotopically in the mammary fat pad (2×10^5 cells) and tumor growth was monitored by caliper measurement. The day when all tumors had reached ca. 150 mm^3 was defined as Day 0; on this day the mice were randomised by tumor size into groups of minimum size 5 animals (mean tumor size ca. 200 mm^3), and treated. Treatments were chosen from 0.9% NaCl (“untreated”), the vascular disrupting agent combretastatin A-4 phosphate (CA4P) at 30 mg/kg administered in 100 μL NaCl (“VDA”), compound of the invention P10 at 4 mg/kg administered in 30 μL DMSO (“P10”), or a combination regime involving treatment with VDA and then 6 hours later with P10 (“VDA+P10”). All treatments were administered intraperitoneally (i.p.). CA4P was re-applied to groups “VDA” and […] once at day 7; no P10 treatment was re-applied to either “P10” or “VDA+P10” groups. Tumor volumes were measured as assay readout.

HeLa cells [2] = assay: In vitro cell viability assay P10 (resazurin); type: cell-based; conditions: Homo sapiens, 48 h, read-out: IC50 antiproliferation / cell viability
Experimental: (§1) Assay Conditions: Cells were cultured under standard conditions (Gao, L. et al. Cell Chemical Biology 2021, 28, 1-14. https://doi.org/10.1016/j.chembiol.2020.11.007), left to adhere for 24 h, then P10 was added from DMSO stock solution and adjusted to 1% vol DMSO. Cells were incubated under standard conditions for 48 h, then 0.20 volume equivalents of a solution of resazurin in PBS (0.15 mg/mL) were added and incubated for 3 hours, then fluorescence (ex 544 nm, em 590 nm) was detected on a fluorescence platereader. Cell viability (%) is calculated relative to a control experiment with no P10 added, from the fluorescence values.

[3] = system: control MEF cells (fl/fl); assay: In vitro TrxR knockout assay: control MEF (fl/fl) viability; type: cell-based; conditions: Mus musculus, 48 h, resazurin, read-out: IC50 antiproliferation / cell viability
Experimental: (§2) Assay Conditions: TrxR1 knockout and reference mouse embryonic fibroblasts (MEF) were a gift by Marcus Conrad (LMU Munich) and initially isolated from conditional TrxR1 knockout mouse embryos, were immortalised by lentiviral transduction. In vitro deletion of TrxR1 was achieved by Tat-Cre induced recombination and verified by PCR and Immunoblotting for TrxR1 as described in Conrad et al. Cancer Res. 2010, 70, 22, 9505. MEF knockout (ko) and control (fl/fl) cells were cultured under standard conditions, left to adhere for 24 h, then P17 or P18 were added from DMSO stock solution and adjusted to 1% vol DMSO. Cells were incubated under standard conditions for 48 h, then 0.20 volume equivalents of a solution of resazurin in PBS (0.15 mg/mL) were added and incubated for 3 h, then fluorescence (ex 544 nm, em 590 nm) was detected on a fluorescence platereader. Cell viability (%) is calculated relative to a control experiment with no P17 or P18 added, from the fluorescence values.

[4] = system: MEF cells with genetic knockout of TrxR (TrxR ko); assay: In vitro TrxR knockout assay: TrxR1 knockout MEF viability; type: cell-based, mouse; conditions: MEF TrxR ko versus fl/fl, 48 h, resazurin
Experimental: as §2

A549 cells = assay: Cellular reduction assay P12-P16 (FIG. 6); type: cell-based, human; conditions: 10 μM or 40 μM, 1% vol DMSO, cells under ordinary conditions
Experimental: Assay Conditions: A549 cells were cultured under standard conditions (Gao, L. et al. Cell Chemical Biology 2021, 28, 1-14. https://doi.org/10.1016/j.chembiol.2020.11.007), left to adhere for 24 h, then compounds were added to 10 μM or 40 μM with 1% vol DMSO. Fluorescence timecourse measurements were acquired as in the chemoreductant assay, with all conditions in triplicates.
Experimental Results and Discussion: F(t) is the raw fluorescence intensity signal increase in arbitrary units with the same detection settings the probes releasing the same cargo. […] This trend is irrespective of the applied concentration in cells and cellular increase is constant over time. This indicates, that P13-P16 are activated more selectively by specific enzymatic cascades (as e.g. Trx/TrxR), whereas P12 may be activated more unspecifically. Thus, compounds of the invention either have the possibility of being useful by giving selective cargo release in pathologically growing cells or cells under abnormal conditions (P13-P16), or offer novel opportunities of cellular delivery of appended cargoes with optimal response kinetics (P12).

HeLa cells [5] = assay: In vitro cell viability assay P21, P22 (resazurin); type: cell-based, human; conditions: 48 h
Experimental: as §1, with “Conditions: Cells (A549 cells for P19 and P20; HeLa cells for P21 and P22) were cultured” for “Conditions: Cells were cultured”, “h, then P19, P20, P21 or P22 were added from” for “h, then P10 was added from”, “viability (%) was calculated relative” for “viability (%) is calculated relative”, “control experiment (no compound) from the” for “control experiment with no P10 added, from the”

## O=C(c1cc2cc(OCCCN3CCC3)ccc2[nH]1)N1C[C@@H](CCl)c2c1cc(OC(=O)N1CCC[C@@H]3CSSC[C@@H]31)c1ccccc21 (racemic) [Compound P10, (S)-3-(5-(3-(azetidin-1-yl)propoxy)-1H-indole-2-carbonyl)-1-(chloromethyl)-2,3-dihydro-1H-benzo[e]indol-5-yl (cis)-hexahydro-[1,2]dithiino[4,5-b]pyridine-1(2H)-carboxylate]
[1]; CA4P (VDA) 30 mg/kg i.p., then 6 hours later P10 4 mg/kg i.p.
  tumor growth (tumor volume), combination with VDA: still more significantly slows tumor growth
[1]; single treatment 4 mg/kg i.p., Balb/c mice, 4T1 tumor
  primary tumor progression (tumor volume): significantly slows primary tumor progression
HeLa cells [2]
  IC50: ~200 nM

## COc1cc2cc(C(=O)N3C[C@@H](CCl)c4c3cc(OC(=O)N3CCN(C)[C@@H]5CSSCC53)c3ccccc43)[nH]c2c(OC)c1OC (mixture of isomers) [Compound P17, (S)-1-(chloromethyl)-3-(5,6,7-trimethoxy-1H-indole-2-carbonyl)-2,3-dihydro-1H-benzo[e]indol-5-yl (cis)-4-methylhexahydro-[1,2]dithiino[4,5-b]pyrazine-1(2H)-carboxylate]
[3]
  IC50: ~100 nM
[4]
  activation / cytotoxicity in TrxR ko cells compared to control cells: activated less effectively

## COc1ccc2c(c1)Oc1cc(OC(=O)N3CCN[C@@H]4CSSC[C@H]43)ccc1C21OC(=O)c2ccccc21 (mixture of isomers) [Compound P12, 3′-methoxy-3-oxo-3H-spiro[isobenzofuran-1,9′-xanthen]-6′-yl-trans-hexahydro-[1,2]dithiino[4,5-b]pyrazine-1(2H)-carboxylate]
A549 cells
  cargo release / activation inside cells (raw fluorescence F(t)): substantially releases its cargo inside cells cultured under ordinary conditions

## COc1cc2cc(C(=O)N3C[C@@H](CCl)c4c3cc(OC(=O)N3CCN(C(=O)CCC(=O)N5CCN(C)CC5)[C@@H]5CSSCC53)c3ccccc43)[nH]c2c(OC)c1OC (mixture of isomers) [Compound P18, (S)-1-(chloromethyl)-3-(5,6,7-trimethoxy-1H-indole-2-carbonyl)-2,3-dihydro-1H-benzo[e]indol-5-yl (cis)-4-(4-(4-methylpiperazin-1-yl)-4-oxobutanoyl)hexahydro-[1,2]dithiino[4,5-b]pyrazine-1(2H)-carboxylate]
[3]
  IC50: ~100 nM
[4]
  activation / cytotoxicity in TrxR ko cells compared to control cells: activated less effectively

## CC[C@@]1(O)C(=O)OCc2c1cc1n(c2=O)Cc2cc3c(CN(C)C)c(OC(=O)N4CCCC5CSSC[C@@H]54)ccc3nc2-1 (mixture of isomers) [Compound P22, (R)-10-((dimethylamino)methyl)-4-ethyl-4-hydroxy-3,14-dioxo-3,4,12,14-tetrahydro-1H-pyrano[3′,4′:6,7]indolizino[1,2-b]quinolin-9-yl (trans)-hexahydro-[1,2]dithiino[4,5-b]pyridine-1(2H)-carboxylate]
HeLa cells [5]
  tolerability in cells compared with Irinotecan: equally well-tolerated in cells as the approved cancer prodrug Irinotecan
  toxicity to cells compared with SN-38: significantly less toxic to cells than the parent compound
